# Experimental data: publication PMC9610207 (Viruses, 2022)
# Key:
# [1] = tested on: SARS-CoV-2; format: cell-based
# [2] = tested on: SARS-CoV-2; format: cell-based; remark: listed apart in the source
# [3] = tested on: SARS-CoV-2; conditions: cited from earlier work
# [4] = tested on: SARS-CoV-2; conditions: cited from earlier work; remark: listed apart in the source
structure (smiles),measurement,setting,value
"CCN(CC)CCCC(C)Nc1ccnc2cc(Cl)ccc12 (stereo not shown) [chloroquine, Chloroquine]",viral infection in Calu-3 with chloroquine,[1],resistant
same,viral infection in VeroE6 with chloroquine,[2],strongly inhibited
same,"SARS-CoV-2 infection in Calu-3, previous studies",[3],not
same,"SARS-CoV-2 infection in VeroE6, previous studies",[4],inhibited
